In general, EC50 refers to the concentration that produces a half-maximal response. A higher EC50 goes with a need for much substance.

The test system of assay [1] is Human RSV-A (“Long” strain). Briefly: RSV-A assay (CPE, ATPlite) in Hep-2 cells. Type of assay: cell-based. Conditions: human respiratory syncytial virus, 120 h, MOI 0.1, 5-day incubation, ATPlite readout. An excerpt:
Hep-2 cells, (originally derived from tumors grown in irradiated-cortisonised weanling rats that had been injected with epidermoid carcinoma tissue from a person's larynx, but later found to be indistinguishable from HeLa cells by PCR DNA analysis), were used for the culturing of genotype A, “Long” strain RSV. Flasks were inoculated with RSV and viral stocks were collected once cytopathic effect (CPE) was greater than 90%. Viral stocks in 25% sucrose media were snap frozen using liquid nitrogen to increase viral stability. Viral stock titers were quantified by tissue culture infectious dose 50% (TCID50) using 8,000 cells per well and 3-fold viral dilutions across a 96-well plate, cultured for 4 days. Viral stock titers were also quantified by a plaque forming unit assay, as described elsewhere.
Following extensive parameter testing, the final assay is run as follows: Hep-2 cells are seeded into the inner 60 wells of a 96-well plate at 8,000 cells per well in a volume of 50 μL using Growth Media (DMEM without phenol red, 1% L-Glut, 1% Penn/Strep, 1% nonessential amino acids, 10% heat-inactivated FBS). 2-fold serial dilutions of control and test compounds are added to the wells in duplicate in a total volume of 25 μL. Viral stock is then added to the wells at a multiplicity of infection (MOI) of 0.1 in a volume of 25 μL, bringing the total volume of each well to 100 μL. The MOI is calculated using the PFU/mL, or TCID50 if unavailable. Each 96-well plate has a control column of 6 wells with cells and virus but no compound (negative control, max CPE), a column with cells but no compound or virus (positive control, minimum CPE), and a column with no cells or virus or compound (background plate/reagent control). The control wells with cells but no virus are given an additional 25 μL of growth media containing an equal quantity of sucrose as those wells receiving the viral stock in order to keep consistent in media and volume conditions. The outer wells of the plate are filled with 125 μL of moat media (DMEM, 1% Penn/Strep) to act as a thermal and evaporative moat around the test wells. Following a 5-day incubation period, the plates are read using ATPlite (50 μL added per well), which quantifies the amount of ATP (a measure of cell health) present in each well. Assay plates are read using the Envision luminometer. In parallel, cytotoxicity is examined on an additional 96-well plate treated in an identical manner, but substituting the 25 μL of viral stock for 25 μL of growth media. […] EC50 ranges are as follows: A<0.4 μM; B 0.4-0.8 μM; C>0.8 μM.
On the technique in general: Cellular ATP, detected with luciferase, serves as a proxy for viable cell number.

Assay [2] deals with Human RSV-B (genotype B, strain 9320). Briefly: RSV-B assay (qPCR or ATPlite) in A549 cells. Type of assay: cell-based. Conditions: human respiratory syncytial virus, 144 h, strain 9320, MOI 0.5, 6 days post infection, qPCR or ATPlite readout. An excerpt:
Hep-2 cells, (originally derived from tumors grown in irradiated-cortisonised weanling rats that had been injected with epidermoid carcinoma tissue from a person's larynx, but later found to be indistinguishable from HeLa cells by PCR DNA analysis), were used for the culturing of genotype B, strain 9320. Flasks were inoculated with RSV-B and viral stocks were collected once cytopathic effect (CPE) was greater than 90%. Viral stocks in 25% sucrose media were snap frozen using liquid nitrogen to increase viral stability. Viral stock titers were quantified by tissue culture infectious dose 50% (TCID50) using 8,000 cells per well and 5-fold viral dilutions across a 96-well plate, cultured for 4 days. Viral stock titers were also quantified by a plaque forming unit assay, as described elsewhere.
The assay is run as follows: A549 cells (originally derived through explant culture from a person's carcinomatous lung tissue) are seeded into the inner 60 wells of a 96-well plate at 3,000 cells per well in a volume of 50 μL using A549 growth media (F-12K Media, 1% Penn/Strep, 1% nonessential amino acids, 10% heat-inactivated FBS). 2-fold serial dilutions of control and test compounds are added to the wells in duplicate in a total volume of 25 μL. Viral stock is then added to the wells at a multiplicity of infection (MOI) of 0.5 in a volume of 25 μL, bringing the total volume of each well to 100 μL. The MOI is calculated using the PFU/mL, or TCID50 if unavailable. Each 96-well plate has a control column of 6 wells with cells and virus but no compound (negative control, max CPE), a column with cells but no compound or virus (positive control, minimum CPE), and a column with no cells or virus or compound (background plate/reagent control). The control wells with cells but no virus are given an additional 25 μL of growth media containing an equal quantity of sucrose as those wells receiving the viral stock in order to keep consistent in media and volume conditions. The outer wells of the plate are filled with 125 μL of moat media (DMEM, 1% Penn/Strep) to act as a thermal and evaporative moat around the test wells. 6 days post infection, the plates are read using qPCR or ATP lite (50 μL added per well), which quantifies the amount of ATP (a measure of cell health) present in each well. Assay plates treated with APTlite are read using the Envision luminometer. […] EC50 ranges are as follows: A<0.4 μM; B 0.4-0.8 μM; C>0.8 μM.
Background: In qPCR the cycle at which signal appears reflects the starting amount.

Regarding `Cc1ncc(-c2sc(C3(C(F)(F)F)CC3)nc2-c2nnc(N[C@H]3N=C(c4ccccc4)c4cccc(F)c4NC3=O)o2)cn1` [Example 73], the EC50 in assay [1] and in assay [2] was below 0.4 µM each time.

In the case of `O=C1Nc2c(F)cccc2C(c2ccccc2)=N[C@H]1Nc1nnc(-c2nc(C3(C(F)(F)F)CC3)sc2-c2cnc(C3CC3)nc2)o1` [Example 74], the half-maximal effective concentration (EC50) in assay [1] is above 0.8 µM; in assay [2] it was below 0.4 µM.

For `O=C1Nc2c(F)cccc2C(c2ccccc2)=N[C@@H]1Nc1nnc(-c2nc(C3(C(F)(F)F)CC3)sc2-c2cnc(C3CC3)nc2)o1` [Example 75], the EC50 in assay [1] and in assay [2] was below 0.4 µM in each case.

`O=C1Nc2c(F)cccc2C(c2ccccc2)=N[C@@H]1Nc1nnc(-c2ncc(C3CC3)cc2-c2cnc(C3CC3)nc2)o1` [Example 76]: the EC50 in assay [1] and in assay [2] was below 0.4 µM throughout.

Turning to `O=C1Nc2ccccc2C(c2ccccc2)=N[C@@H]1Nc1nnc(-c2ncc(C3CC3)cc2-c2cnc(C3CC3)nc2)o1` [Example 77], the 50% effective concentration (EC50) in assay [1] and in assay [2] was below 0.4 µM throughout.

Turning to `O=C1Nc2ccccc2C(c2ccccc2)=N[C@@H]1Nc1nnc(-c2ncc(CO)cc2-c2cnc(C3CC3)nc2)o1` [Example 97], the concentration for a half-maximal effect (EC50) in assay [1] and in assay [2] was below 0.4 µM each time.

As to `O=C1Nc2ccccc2C(c2ccccc2)=N[C@@H]1Nc1nnc(-c2ncc(C(F)F)cc2-c2cnc(C3CC3)nc2)o1` [Example 98], the EC50 in assay [1] and in assay [2] was below 0.4 µM each time.

In the case of `Cc1cnc(-c2nnc(N[C@H]3N=C(c4ccccc4)c4ccccc4NC3=O)o2)c(-c2cnc(C3CC3)nc2)c1` [Example 99], the EC50 in assay [1] and in assay [2] was below 0.4 µM throughout.

For the origin of these results see patent US11912695B2, “Benzodiazepine derivatives as RSV inhibitors” (ENANTA PHARMACEUTICALS, INC., priority 2019, dated 2024).
